Experimental data published in patent US4145554A, “3-Nitropyrazole derivatives” (Eli Lilly and Company, priority 1977, dated 1979).
Values after ≈ are worked out from the molar mass of the structure shown.

Legend:
Mima polymorpha = assay: agar dilution technique (MIC); format: cell-based
Escherichia coli [1] = assay: agar dilution technique (MIC); format: cell-based
Hemophilus gallinarum = assay: in vitro tube dilution test (MIC); format: cell-based
Staphylococcus aureus = assay: agar dilution technique (MIC); format: cell-based
E. coli = assay: Tests in mice, E. coli infection; format: in vivo
Description: Groups of laboratory mice were inoculatd with E. coli or with Streptococcus pyogenes. The 3-nitropyrazoles were administered in two different modes to the infected mice. In one group of tests, the compound was administered in two subcutaneous doses of 83 mg./kg. each, given 1 and 5 hours after the mice were inoculated with the organism. The mice were observed, and the results reported below as the number of days the treated mice survived the challenge.
In the other group of tests, the dose of each compound which allowed 50 percent of the treated mice to survive the challenge was determined. Again, the compound was administered in subcutane divided doses, 1 and 5 hours post-inoculation.

group E streptococci = assay: Lymphadenitis in swine; format: in vivo; conditions: 200 gm. per ton of feed; 7 weeks; 12 treated swine
Description: The same 3-nitropyrazole tested in the example immediately above was also tested to determine its ability to prevent lymphadenitis, or jowl abscess, infections in swine. One group of 12 young swine was treated with the 3-nitropyrazole compound as a feed additive at the rate of 200 gm. per ton of feed, and another group of 12 swine was held as infected controls. Administration of the 3-nitropyrazole began shortly before the administration of the challenge, and continued throughout the 7-week test. All of the swine were challenged with a culture of group E streptococci isolated from jowl abscesses of an infected pig. The challenge organisms were administered as a dispersion in the swine's drinking water. After 7 weeks, all of the swine were slaughtered, and their cervical areas were examined for the presence of the abscesses caused by lymphadenitis infections. […] Abscesses were found in 9 of the 12 infected control animals.

Mycoplasma gallisepticum = assay: in vitro tube dilution test (MIC); format: cell-based; conditions: Mycoplasmoides gallisepticum; Mycoplasma galliseptioum, tube dilution; read-out: MIC
Procedure, shortened: (§1)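 Standard tube dilution test; MIC reported as micrograms of compound per milliliter.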

Mycoplasma synoviae = assay: in vitro tube dilution test (MIC); format: cell-based; conditions: Mycoplasmopsis synoviae, Mycoplasma synoviae
Procedure, shortened: as §1

Escherichia coli [2] = assay: in vitro tube dilution test (MIC); format: cell-based; conditions: tube dilution, read-out: MIC
Procedure, shortened: as §1

[3] = system: Bordetella bronchiseptica; assay: in vitro tube dilution test (MIC); format: cell-based
E. amylovora = assay: Fire blight of field-grown pear trees, natural and induced infections; format: in vivo; conditions: 100 to 800 ppm. aqueous dispersions
Description: Our compound, 1-(2-hydroxyethyl)-3-nitro-4-pyrazolecarboxamide, was also tested against natural and induced infections of E. amylovora on field-grown pear trees.

Salmonella pullorum 9-25 = assay: in vitro tube dilution test (MIC); format: cell-based; conditions: Salmonella enterica; Salmonella pullorum 9-25, tube dilution
[4] = system: Streptococcus sp. (group D); assay: agar dilution technique (MIC); format: cell-based
P. multocida = assay: Mice infected with P. multocida, compound in drinking water; format: in vivo; conditions: 7 days
Description: Some of the 3-nitropyrazoles were also administered to mice infected with P. multocida. Tests were conducted in which the pyrazoles were administered both by injection and in the drinking water.
The table below reports results of tests in which the compound was administered in the water. Groups of 10 standardized white mice were segregated, and each mouse was infected by injecting a broth culture of P. multocida subcutaneously. The administration of the test compounds was begun at the same time the mice were infected by adding a known amount of the test compound to the drinking water of the mice. One group of infected control mice received no treatment. The mice were observed, and the test was concluded at the end of 7 days. The number of mice in each group which survived the P. multocida infection was recorded.

Citrobacter freundii = assay: agar dilution technique (MIC); format: cell-based
Clostridium perfringens = assay: microbe, parasite or virus in culture; format: cell-based
Mycoplasma hyorhinis = assay: in vitro tube dilution test (MIC); format: cell-based
Text: (§2) Our compound, 1-(2-hydroxyethyl)-3-nitro-4-pyrazolecarboxamide, has been extensively tested in vitro to determine the range of microorganisms against which it is active. The table of data below reports the minimum inhibitory concentration (MIC) at which the compound is effective in controlling a variety of microorganisms in a standard tube dilution test system. The MIC is reported as micrograms of compound per milliliter.
(§3) The other preferred compounds of our invention have also been thoroughly tested in the in vitro tube dilution test.

Pseudomonas sp. = assay: in vitro tube dilution test (MIC); format: cell-based
Text: as §2, §3

[5] = system: Salmonella typhimurium 1335; assay: in vitro tube dilution test (MIC); format: cell-based; conditions: Salmonella enterica; Salmonella typhimurium 1335 (turkey intestine), tube dilution
Text: as §2, §3

[6] = system: Salmonella heidelburg 1593; assay: in vitro tube dilution test (MIC); format: cell-based; conditions: Salmonella heidelburg 1593 (turkey pancreas), tube dilution
Text: as §2, §3

Salmonella pullorum Ill. = assay: in vitro tube dilution test (MIC); format: cell-based; conditions: Salmonella enterica
Text: as §2, §3

Staphylococcus sp. = assay: in vitro tube dilution test (MIC); format: cell-based
Hemophilus somnus = assay: in vitro tube dilution test (MIC); format: cell-based
Diplococcus pneumoniae = assay: agar dilution technique (MIC); format: cell-based; conditions: Streptococcus pneumoniae

`NC(=O)c1cn(CCO)nc1[N+](=O)[O-]` [Compound 32, 1-(2-hydroxyethyl)-3-nitro-4-pyrazolecarboxamide] showed an MIC (Mima polymorpha) of 2 µg/mL (≈ 9.99 µM), an MIC (Escherichia coli [1]) of 8 µg/mL (≈ 40 µM) and an MIC (Hemophilus gallinarum) of 0.78 µg/mL (≈ 3.9 µM). For the same compound, the MIC (Staphylococcus aureus) was 8 to 16 µg/mL (≈ 40 to 79.9 µM), the ED50 (E. coli; Escherichia coli, sc, subcutaneous, 1 and 5 hours post-inoculation) was 19.6 mg/kg and the “Days Survived” value (E. coli; two subcutaneous doses of 83 mg./kg., 1 and 5 hours) was 7.0 days. The “abscesses in cervical areas” value (group E streptococci) was “No abscesses were found in any of the treated swine”, the MIC (Mycoplasma gallisepticum) was 0.78 µg/mL (≈ 3.9 µM) and the MIC (Mycoplasma synoviae) was 50 µg/mL (≈ 250 µM). The MIC (Escherichia coli [2]) was 3.12 µg/mL (≈ 15.6 µM), the MIC [3] was 25 µg/mL (≈ 125 µM) and the “control of fire blight on field-grown pear trees” value (E. amylovora) was “controlled fire blight on the pear trees”. For the same compound, the MIC (Salmonella pullorum 9-25) was under 1.56 µg/mL, the MIC [4] was 32 µg/mL (≈ 160 µM) and the Survival (P. multocida; 0.1 gm./gal. in drinking water) was 8/10. The Survival (P. multocida; 0.2 gm./gal. in drinking water) was 10/10, the MIC (Citrobacter freundii) was 8 µg/mL (≈ 40 µM) and the MIC (Clostridium perfringens) was 25 to 50 µg/mL (≈ 125 to 250 µM). For the same compound, the MIC (Mycoplasma hyorhinis) was 50 µg/mL (≈ 250 µM), the MIC (Pseudomonas sp.) was 12.5 µg/mL (≈ 62.5 µM) and the MIC [5] was 6.25 µg/mL (≈ 31.2 µM). It also gave an MIC [6] of under 1.56 µg/mL, an MIC (Salmonella pullorum Ill.) of under 1.56 µg/mL and an MIC (Staphylococcus sp.) of 3.12 µg/mL (≈ 15.6 µM). For the same compound, the MIC (Hemophilus somnus) was over 100 µg/mL and the MIC (Diplococcus pneumoniae) was 2 µg/mL (≈ 9.99 µM).
